Measurements from US10689394B2, “Thieno[2,3-b]pyridine derivative, quinoline derivative, and use thereof” (The University of Tokyo, priority 2016, dated 2020).

Molecular target: T1, binding between ALS-related mutant SOD1 (Flag-SOD1 G93A) and Derlin-1 (Derlin-1-HA) (Homo sapiens, UniProt P00441+Q9BUN8, G94A)
T1 construct: expressed in transfected cells; host or cells: HEK293A
Assay: Cell-based co-immunoprecipitation assay of mutant SOD1 (G93A)-Derlin-1 binding
Parameters: key to Activity value (score): a compound exhibiting no inhibitory activity is set at 0; a compound exhibiting inhibitory activity is set at 1; a compound exhibiting significant inhibitory activity is set at 2; a compound having higher inhibitory activity than the compound of Example 1 is set at 3
Settings: assay concentration 20 μM; HEK293A cells overexpressing Flag-SOD1 G93A and Derlin-1-HA
Method: As cells, human embryonic kidney-derived, Human Embryonic Kidney 293A (HEK293A) cells were used. The cells were cultured in High Glucose Dulbecco's modified Eagle's medium (DMEM: 4.5 mg/ml glucose, Sigma) supplemented with complement-inactivated 10% fetal bovine serum (FBS, Vitromex) and 100 units/mL Penicillin G (Meiji), which was placed in an incubator set at conditions of 37° C. and 5% CO2.
Transfection into the HEK293A cells was carried out using PEI-Max (Polyscience) at a ratio of 3 μL of PEI-Max to 1 μg of plasmid. DMEM was mixed with PEI-Max, and the mixture was then left at rest for 5 minutes. Thereafter, the reaction mixture was added to the plasmid DNA dissolved in DMEM, and the thus obtained mixture was further left at rest for 15 minutes. After seeding, the culture was carried out for 12 to 24 hours, and the resultant was then added to a culture medium of cells, in which the medium had been exchanged with DMEM supplemented only with 10% FBS.
pcDNA3.0-Derlin-1-HA, pcDNA3.0-Flag-SOD1 G93A, and 123 types of other mutants.
In the lysis of HEK293A cells for use in a co-immunoprecipitation experiment, an IP lysis buffer (20 mM Tris-HCl (pH 7.5), 150 mM NaCl, 10 mM EDTA (pH 8.0), 1% Triton-X 100, 5 μg/mL leupeptin, and 1 mM phenylmethylsulfonyl fluoride) was used.
After the transfection on a 24-well plate, the cells were cultured for 12 hours or 24 hours, and the obtained cell culture was exchanged with 200 μL of medium. Thereafter, 1% DMSO or various types of compounds having each different concentration were added into the culture. Thirty-six hours or twenty-four hours later, the cells were incubated in the IP lysis buffer (300 μL/well) at 4° C. for 25 minutes, so that the cells were lysed. The cell lysate was centrifuged at 4° C. at 15000 rpm for 10 minutes, and a supernatant was then recovered. To this supernatant, Anti-Flag M2 affinity gel was added in a liquid amount of 20 μL, and they were allowed to react with each other by subjecting the obtained mixture to inversion mixing at 4° C. for 25 minutes. After completion of the reaction, a supernatant was removed, and the residue was washed twice with High salt wash buffer (1% Triton X 100, 500 mM NaCl, 20 mM Tris-HCl (pH 7.5), and 5 mM EGTA), and was then washed once with Low salt wash buffer (150 mM NaCl, 20 mM Tris-HCl (pH 7.5), and 5 mM EGTA). Finally, 50 μL of a 2×SDS sample buffer was added to the resultant, and the obtained mixture was then boiled at 98° C. for 3 minutes to obtain an SDS-PAGE sample. Regarding the lysate, a 2×SDS sample buffer was added in an amount equal to the supernatant, and the obtained mixture was then boiled at 98° C. for 3 minutes to obtain an SDS-PAGE sample.
After completion of SDS-PAGE, a protein was transferred from the gel into a polyvinylidene difluoride membrane (PVDF) ([…], Pall), and was then blocked with TBS-T (150 mM NaCl, 50 mM Tris-HCl (pH 8.0), and 0.05% Tween 20) supplemented with 5% skimmed milk at room temperature for 2 hours or more. Thereafter, a primary antibody diluted with TBS-T supplemented with 5% bovine serum albumin and 0.1% NaN3 was allowed to bind to each molecule on the PVDF membrane at 4° C. for 12 hours or more. After completion of the reaction, a secondary antibody (HRP-linked 2nd antibody) diluted with TBS-T supplemented with 5% skimmed milk was allowed to bind to the primary antibody at room temperature for 1 hour. Thereafter, the resultant was washed with TBS-T for 15 minutes, 3 or more times, and detection was then carried out using an enhanced chemiluminescence (ECL) system.
With regard to the compounds of the present invention (Example Compound 1 to Example Compound 47), whether or not the present compound can inhibit the binding between ALS-related mutant SOD1 and Derlin-1 in a cell by being added into a cell culture solution was examined according to a co-immunoprecipitation experiment. […]

T1 sequence (P00441 whole entry G94A, species assumed): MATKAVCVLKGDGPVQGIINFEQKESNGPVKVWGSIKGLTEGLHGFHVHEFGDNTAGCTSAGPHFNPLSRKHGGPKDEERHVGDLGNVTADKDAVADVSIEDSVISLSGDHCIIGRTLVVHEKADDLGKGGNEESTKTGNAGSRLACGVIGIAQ
T1 sequence (Q9BUN8 whole entry, species assumed, stated change not applied): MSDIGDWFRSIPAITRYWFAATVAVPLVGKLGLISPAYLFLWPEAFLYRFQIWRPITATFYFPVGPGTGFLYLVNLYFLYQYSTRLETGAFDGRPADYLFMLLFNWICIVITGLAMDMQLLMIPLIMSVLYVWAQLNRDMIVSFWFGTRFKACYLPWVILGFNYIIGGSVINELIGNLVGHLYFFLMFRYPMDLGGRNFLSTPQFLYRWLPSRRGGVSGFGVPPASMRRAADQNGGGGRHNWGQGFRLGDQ

SMILES	Activity value (score)
C=C(C)CN(C(=O)c1sc2nc(-c3cccnc3)ccc2c1N)c1ccc(F)cc1 [Example 34, 3-amino-N-(4-fluorophenyl)-N-(2-methylprop-2-en-1-yl)-6-(3-pyridinyl)thieno[2,3-b]pyridine-2-carboxamide]	1
C#CCOC/C=C\CN(C(=O)c1sc2nc(-c3cccnc3)ccc2c1N)c1ccccc1 [Example 36]	1
Nc1c(C(=O)N(Cc2ccccc2)c2ccccc2)sc2nc(-c3cccnc3)ccc12 [Example 37, 3-amino-N-benzyl-N-phenyl-6-(3-pyridinyl)thieno[2,3-b]pyridine-2-carboxamide]	2
CC(C)=CCN(C(=O)c1sc2nc(-c3cccnc3)ccc2c1N)c1ccncc1 [Example 39, 3-amino-N-prenyl-N-(4-pyridinyl)-6-(3-pyridinyl)thieno[2,3-b]pyridine-2-carboxamide]	1
Nc1c(C(=O)N(CC=C2CCCC2)c2ccccc2)sc2nc(-c3cccnc3)ccc12 [Example 40, 3-amino-N-(2-cyclopentylideneethyl)-N-phenyl-6-(3-pyridinyl)thieno[2,3-b]pyridine-2-carboxamide]	1
CC1(C)CCN(C(=O)c2sc3nc(-c4cccnc4)ccc3c2N)c2ccccc21 [Example 41]	3
CC(C)=CCN(C(=O)c1ccc2nc(-c3cccnc3)ccc2c1N)c1ccccc1 [Example 42, 5-Amino-N-phenyl-N-prenyl-2-(pyridin-3-yl)quinoline-6-carboxamide]	1
CC(C)=CCN(C(=O)c1sc2nc(-c3ccncc3)ccc2c1N)c1ccc(C(C)(C)C)cc1 [Example 43, 3-amino-N-(4-tert-butylphenyl)-N-(3-methylbut-2-en-1-yl)-6-(4-pyridinyl)thieno[2,3-b]pyridine-2-carboxamide]	1
CC1(C)CCN(C(=O)c2sc3nc(-c4ccncc4)ccc3c2N)c2ccccc21 [Example 44]	1
COc1cccc(N(CC=C(C)C)C(=O)c2sc3nc(-c4ccncc4)ccc3c2N)c1 [Example 45, 3-amino-N-(3-methoxyphenyl)-N-prenyl-6-(4-pyridinyl)thieno[2,3-b]pyridine-2-carboxamide]	1
COc1ccc(N(CC=C(C)C)C(=O)c2sc3nc(-c4ccncc4)ccc3c2N)cc1 [Example 46, 3-amino-N-(4-methoxyphenyl)-N-prenyl-6-(4-pyridinyl)thieno[2,3-b]pyridine-2-carboxamide]	2
C=C(C)CN(C(=O)c1sc2nc(-c3ccncc3)ccc2c1N)c1ccccc1 [Example 47, 3-amino-N-metallyl-N-phenyl-6-(4-pyridinyl)thieno[2,3-b]pyridine-2-carboxamide]	2

Now from value to molecule:

Activity value (score)	SMILES
1	Nc1c(C(=O)Nc2ccc(OCc3ccccc3)cc2)sc2nc(-c3cccnc3)ccc12 [Example 26, 3-amino-N-[4-(benzyloxy)phenyl]-6-(3-pyridinyl)thieno[2,3-b]pyridine-2-carboxamide]
1	Nc1c(C(=O)Nc2ccc(I)cc2)sc2nc(-c3cccnc3)ccc12 [Example 27, 3-amino-N-(4-iodophenyl)-6-(3-pyridinyl)thieno[2,3-b]pyridine-2-carboxamide]
1	Nc1c(C(=O)Nc2ccc(C(F)(F)F)cc2)sc2nc(-c3cccnc3)ccc12 [Example 29, 3-amino-6-(3-pyridinyl)-N-(4-(trifluoromethyl)phenyl)thieno[2,3-b]pyridine-2-carboxamide]
1	Nc1c(C(=O)Nc2ccc(-c3cc(C(F)(F)F)cc(C(F)(F)F)c3)cc2)sc2nc(-c3cccnc3)ccc12 [Example 30, 3-amino-N-(3′,5′-bis(trifluoromethyl)-[1,1′-biphenyl]-4-yl)-6-(3-pyridinyl)thieno[2,3-b]pyridine-2-carboxamide]
1	Nc1c(C(=O)Nc2cccc(C(F)(F)F)c2)sc2nc(-c3ccncc3)ccc12 [Example 31, 3-amino-6-(4-pyridinyl)-N-(3-(trifluoromethyl)phenyl)thieno[2,3-b]pyridine-2-carboxamide]
1	Nc1c(C(=O)Nc2ccncc2)sc2nc(-c3ccncc3)ccc12 [Example 32, 3-amino-N-(4-pyridinyl)-6-(4-pyridinyl)thieno[2,3-b]pyridine-2-carboxamide]
1	Nc1c(C(=O)Nc2ccncc2)sc2nc(-c3cncnc3)ccc12 [Example 33, 3-amino-N-(4-pyridinyl)-6-(5-pyrimidinyl)thieno[2,3-b]pyridine-2-carboxamide]
1	C#CCN(C(=O)c1sc2nc(-c3cccnc3)ccc2c1N)c1ccc(F)cc1 [Example 35, 3-amino-N-(4-fluorophenyl)-N-(prop-2-yn-1-yl)-6-(3-pyridinyl)thieno[2,3-b]pyridine-2-carboxamide]
